In patent publication US9316632B2, “Methods of screening chemotherapeutic agents and treating cancer” (Marshall University Research Corporation, priority 2009, dated 2016):

Tests used:
[1] = tested on: cancer stem-like cells (anaplastic ependymoma, WHO grade III); assay: MTT assay, cancer stem-like cells, Example 2 anaplastic ependymoma; assay type: cell-based, human; conditions: FIG. 9
Experimental: (§1) Three-Dimensional Bioreactor Cell Culture. A hydrodynamic focusing bioreactor (HFB) (Celdyne, Houston Tex.) was used as previously described to proliferate cancer stem-like cells. Culture media, oxygenation, speed, temperature and CO2 were kept consistently constant for ten days. In certain instances, cancer stem-like cells were cultured in the HFB and exposed for 2 to 6 hours with ozone (O3) levels at levels of 0.08 to 0.40 PPM to cause a fluctuation in the cellular redox environment (redox cycle). Ozone was generated with two OREC Model OZONEV1-O ozonizers (Ozone Research and Equipment Corp., Phoenix, Ariz.), with compressed air used as a source of oxygen, and the concentration of ozone within the chambers was monitored throughout the exposure with three Dasibi 1003 AH ambient-air ozone monitors (Dasibi Environmental Corp., Glendale, Calif.). Cells were then counted and 1×10^6 cells were placed in the rotating vessel set at 25 rpm with airflow set at 20% for […]. Cells were then removed and counted again using trypan blue exclusion to determine cellular viability and cell number and plated in 96 wells for chemosensitivity testing. The cells were also reacted with florescent antibodies for phenotypic characterization.
(§2) Chemosensitivity assay. Sensitivity and resistance to chemotherapy was assessed using an MTT assay on 1×10^3 cells plated in 5 replicas into 96-well plates. Briefly, equal number of bulk of tumor cells grown in monolayer and cancer stem-like cells CD133(+) three-dimensionally grown in the bioreactor, were plated separately in 96-well dishes and incubated at 37° C. for 24-hours. Then the cells were challenged for a 1-hour pulse with a panel of anticancer drugs as indicated by the oncologist. Each anticancer drug was tested in a range of doses including the clinically relevant dose. An MTT assay was performed 24-hours following chemotherapy treatment to assess cell viability as previously described. A dose response chart was developed in which samples were scored as responsive (60-100% cell kill), moderately responsive (40-60% cell kill), low to moderate responsive (20-40% cell kill), low responsive (10-20% cell kill), and non-responsive (0-10% cell kill).
(§3) Similar to the experiments described herein above, the cancer cell sample was initially cultured as a suspension and the cancer cells were immunophenotyped by flow cytometer using anti-CD133 (Milteny Biotech, Auburn, Calif.), -CD34 (Milteny Biotech, Auburn, Calif.), -CD38 (Milteny Biotech, Auburn, Calif.), -CD44 (BD Bioscience, Sparks, Md.), -CD24 (Milteny Biotech, Auburn, Calif.), -CXCR4 (Milteny Biotech, Auburn, Calif.), -OCT3/4 (BD Bioscience, Sparks, Md.), and -Nanog (BD Bioscience, Sparks, Md.).
(§4) Then, to then expand the immature cancer stem-like cell population of CD133+ cells present within the ependymoma primary culture, the ependymoma cells were grown in a rotating vessel, as describe herein above and as previously described. To assess the efficacy of various chemotherapeutic agents on the cancer cell sample, an MTT assay was the performed as also described herein.

[2] = tested on: bulk cancer cells (anaplastic ependymoma, WHO grade III); assay: MTT assay, bulk cancer cells, Example 2 anaplastic ependymoma; assay type: cell-based, human; conditions: FIG. 9
Experimental: as §2, §3, §4

[3] = tested on: ependymoma cells grown in a monolayer (bulk cancer cells); assay: MTT chemosensitivity assay, bulk cancer cells of the Example 1 ependymoma sample; assay type: cell-based, human; conditions: 1-hour pulse, MTT 24-hours after treatment, FIG. 5
Experimental: Single Cell Suspension and Primary Cell Culture. Single-cell suspensions from the ependymoma biopsy was prepared using the gentleMACS™ Dissociator (Miltenyi, Auburn, Calif.), and C Tubes using a standardized, semi-automated protocol based on a combination of mechanical tissue disruption and incubation with a 50% solution 0.025% trypsin and Accutase (Innovative Cell Technologies, San Diego, Calif.). Cells were serially plated in 24-well, 12-well, 6-well, 10-cm treated dishes and cultured to subconfluence in RPMI-1640 medium supplemented with 5% irradiated, heat inactivated, defined fetal bovine serum (Thermofisher/Hyclone), and 50 U of penicillin and 5 μg of streptomycin/mL of medium (Thermofisher/Mediatech).
as §2
(§5) To assess the efficacy of various chemotherapeutic agents on the cancer cell sample collected in Example 2, an MTT assay was performed on […] plated in 5 replicas into 96-well plates. Briefly, equal number of the bulk cancer cells grown in a monolayer and the CD133(+) cancer stem-like cells grown in the HFB were plated separately in 96-well dishes and incubated at 37° C. for 24-hours. Then, each of the cell cultures were challenged for a 1-hour pulse with various chemotherapeutic agents, including cisplatin, oxaliplatin, arabinoside-C, VP-16, busulfan, methotrexate, CPT-11, and doxorubicin. Each chemotherapeutic agent was tested in a range of doses including their respective clinically relevant doses.
The MTT assay was then performed 24-hours following the chemotherapy treatment to assess cell viability. A dose response chart was developed in which samples were scored as responsive (60-100% cell kill), moderately responsive (40-60% cell kill), low to moderate responsive (20-40% cell kill), low responsive (10-20% cell kill), and non-responsive (0-10% cell kill). This assessment was independently performed for both the bulk cancer cells and the cancer stem-like cells of the ependymoma cancer cell sample.

[4] = tested on: CD133(+) cancer stem-like cells grown in the HFB (ependymoma); assay: MTT chemosensitivity assay, cancer stem-like cells of the Example 1 ependymoma sample; assay type: cell-based, human; conditions: 1-hour pulse, MTT 24-hours after treatment, FIG. 5
Experimental: as §1, §2
To then expand the immature cancer stem-like cell population of CD 133+ cells present within the ependymoma primary culture, the ependymoma cells were grown in a rotating vessel, as previously described. Briefly, 1×10^6 of the ependymoma cells from a monolayer culture were grown for ten days using a Hydrodynamic Focusing Bioreactor (HFB) (Celdyne, Houston, Tex.) at 25 rpm with airflow set at 20%, and culture media, oxygenation, speed, temperature and CO2 were kept consistently constant for ten day period. Following the ten day period, cells were then removed and counted again from the HFB, and trypan blue exclusion was used to determine cellular viability and cell number. The cells were also reacted with florescent antibodies for phenotypic characterization.
as §5

[5] = tested on: bulk cancer cells (IDH-1 negative glioblastoma); assay: MTT assay, bulk cancer cells, Example 3 IDH-1 negative glioblastoma; assay type: cell-based, human; conditions: FIG. 11
Experimental: as §2

[6] = tested on: cancer stem-like cells (IDH-1 negative glioblastoma); assay: MTT assay, cancer stem-like cells, Example 3 IDH-1 negative glioblastoma; assay type: cell-based, human; conditions: at the concentration tested, FIG. 11
Experimental: as §1
(§6) Chemosensitivity assay. Sensitivity and resistance to chemotherapy was assessed using an MTT assay on 1×10^3 cells plated in 5 replicas into 96-well plates. […]

[7] = tested on: cancer stem-like cells (IDH-1 negative glioblastoma, WHO grade IV); assay: MTT assay, cancer stem-like cells, Example 4 IDH-1 negative glioblastoma; assay type: cell-based, human; conditions: FIG. 13
Experimental: as §1, §6

[8] = tested on: bulk cancer cells (IDH-1 negative glioblastoma, WHO grade IV); assay: MTT assay, bulk cancer cells, Example 4 IDH-1 negative glioblastoma; assay type: cell-based, human; conditions: FIG. 13
Experimental: as §2

[9] = tested on: intradural, extramedullary anaplastic diffuse spinal ependymoma, WHO grade III; assay: Clinical course of the Example 1 subject under treatment; assay type: in vivo, human; conditions: recurring spinal ependymoma
[10] = tested on: bulk cancer cells (reoccurrence of anaplastic ependymoma); assay: MTT assay, bulk cancer cells from the reoccurrence of the Example 1 ependymoma; assay type: cell-based, human; conditions: reoccurrence biopsy, FIG. 6
Experimental: as §2

[11] = tested on: cancer stem-like cells (reoccurrence of anaplastic ependymoma); assay: MTT assay, cancer stem-like cells from the reoccurrence of the Example 1 ependymoma; assay type: cell-based, human; conditions: reoccurrence biopsy, FIG. 6
Experimental: as §1, §6

medulloblastoma cells = assay: MTT assay, Example 5 medulloblastoma cells; assay type: cell-based, human; conditions: FIG. 15
Experimental: as §2

Molecule: O=NN(CCCl)C(=O)NC1CCCCC1 [lomustine]
- sensitivity to chemotherapy (MTT cell viability) [1]: not sensitive
- sensitivity to chemotherapy (MTT cell viability) [2]: not sensitive

Molecule: Nc1ccn([C@@H]2O[C@H](CO)[C@@H](O)[C@@H]2O)c(=O)n1 [arabinoside-C]
- sensitivity to chemotherapy (MTT cell viability) [3]: completely not responsive
- sensitivity to chemotherapy (MTT cell viability) [4]: completely not responsive

Molecule: N.N.[Cl][Pt][Cl] [cisplatin]
- sensitivity to chemotherapy (MTT cell viability) [3]: sensitive
- cell kill [1]: 30%
- sensitivity to chemotherapy (MTT cell viability) [4]: moderate chemosensitivity
- cell kill [2]: 30%

Molecule: CS(=O)(=O)OCCCCOS(C)(=O)=O [busulfan]
- sensitivity to chemotherapy (MTT cell viability) [3]: minimally to moderately responsive
- sensitivity to chemotherapy (MTT cell viability) [4]: minimally to moderately responsive

Molecule: Cn1nnc2c(C(N)=O)ncn2c1=O [temozolomide]
- cell kill [5]: 50%
- response score (MTT cell viability) [6]: non-responsive (non-responsive (0-10% cell kill))
- cell kill [7]: 60%
- cell kill [8]: 60%
- clinical response of the tumor to treatment [9]: no response

Molecule: S=C=NCc1ccccc1 [BITC, benzyl isothiocyanate]
- sensitivity to chemotherapy (MTT cell viability) [10]: sensitive
- sensitivity to chemotherapy (MTT cell viability) [1]: not sensitive
- sensitivity to chemotherapy (MTT cell viability) [11]: sensitive
- sensitivity to chemotherapy (MTT cell viability) [2]: not sensitive

Molecule: CN(Cc1cnc2nc(N)nc(N)c2n1)c1ccc(C(=O)N[C@@H](CCC(=O)O)C(=O)O)cc1 [methotrexate]
- sensitivity to chemotherapy (MTT cell viability) [3]: minimally to moderately responsive
- sensitivity to chemotherapy (MTT cell viability) [4]: minimally to moderately responsive

Molecule: O=C1[O][Pt]2([NH][C@@H]3CCCC[C@H]3[NH]2)[O]C1=O [oxaliplatin]
- sensitivity to chemotherapy (MTT cell viability) [3]: completely not responsive
- sensitivity to chemotherapy (MTT cell viability) [1]: not sensitive
- sensitivity to chemotherapy (MTT cell viability) [4]: completely not responsive
- sensitivity to chemotherapy (MTT cell viability) [2]: not sensitive

Molecule: COc1cccc2c1C(=O)c1c(O)c3c(c(O)c1C2=O)C[C@@](O)(C(=O)CO)C[C@@H]3O[C@H]1C[C@H](N)[C@H](O)[C@H](C)O1 [doxorubicin]
- sensitivity to chemotherapy (MTT cell viability) [3]: sensitive
- sensitivity to chemotherapy (MTT cell viability) [4]: highly sensitive

Molecule: CCc1c2c(nc3ccc(OC(=O)N4CCC(N5CCCCC5)CC4)cc13)-c1cc3c(c(=O)n1C2)COC(=O)[C@]3(O)CC [CPT-11, irinotecan]
- sensitivity to chemotherapy (MTT cell viability) [3]: sensitive
- sensitivity to chemotherapy (MTT cell viability) [1]: not sensitive
- sensitivity to chemotherapy (MTT cell viability) [4]: moderate chemosensitivity
- sensitivity to chemotherapy (MTT cell viability) [2]: not sensitive

Molecule: CNNCc1ccc(C(=O)NC(C)C)cc1 [procarbazine]
- cell kill [1]: 30%
- cell kill [2]: 30%

Molecule: COc1cc([C@@H]2c3cc4c(cc3[C@@H](O[C@@H]3O[C@@H]5CO[C@@H](C)O[C@H]5[C@H](O)[C@H]3O)[C@H]3COC(=O)[C@H]23)OCO4)cc(OC)c1O [VP-16, etoposide]
- sensitivity to chemotherapy (MTT cell viability) [3]: completely not responsive
- effectiveness at treating the medulloblastoma cells (MTT) (medulloblastoma cells): effective
- sensitivity to chemotherapy (MTT cell viability) [4]: completely not responsive

Molecule: bevacizumab
- sensitivity to chemotherapy (MTT cell viability) [1]: not sensitive
- sensitivity to chemotherapy (MTT cell viability) [2]: not sensitive
